From publication PMC11187573, “Identification of SARS-CoV-2 Mpro inhibitors through deep reinforcement learning for de novo drug design and computational chemistry approaches” (RSC Medicinal Chemistry, 2024)
Like-named read-outs stand apart in the source and are kept apart here.

Key:
SARS-CoV-2 main protease = type: biochemical; details: Docking validation set, class assigned from COVID Moonshot IC50
[1] = tested on: SARS, SARS-CoV-2 and MERS Mpro; details: cited from earlier work
Mpro = details: ML dataset, cited from earlier work
[2] = Origin COVID_Moonshot, ref COVID Moonshot

Compound | label (active / inactive) (SARS-CoV-2 main protease) | IC50 ([1]; Origin ChEMBL, ref ChEMBL) [nM] | IC50 (Mpro; Origin ChEMBL, ref ChEMBL) [nM] | IC50 [1, 2] [nM] | IC50 (Mpro; [2]) [nM]
Cn1ccc(CN(C(=O)Cc2cccnc2)c2ccc(-c3ccccn3)cc2)n1 [ALP-POS-c0c213c9-14, Cn1ccc(CN(C(=O)Cc2cccnc2)c2ccc(-c3ccccn3)cc2)n1] | inactive | – | – | – | –
CN1CC[C@@]2(C)c3cc(O)ccc3N(C)[C@@H]12 [CHEMBL1256915, C[C@]12c(cc(cc3)O)c3N(C)[C@H]1N(C)CC2, reference compound] | – | 1990 | 1990 | – | –
O=C(Nc1c[nH]nc1-c1ccccn1)c1cccc2nccn12 [COM-UCB-8c7d23dc-15, O=C(Nc1c[nH]nc1-c1ccccn1)c1cccc2nccn12] | inactive | – | – | – | –
COc1cc(C(=S)N2CCOCC2)ccc1O [CHEMBL1380480, COc(cc(cc1)C(N2CCOCC2)=S)c1O, reference compound] | – | 1320 | 1320 | – | –
C[C@@H]1C[C@@H](C(=O)Nc2cncc3ccccc23)c2cc(Cl)ccc2O1 [EDJ-MED-e4b030d8-2, C[C@H](C[C@H]1C(Nc2cncc3ccccc23)=O)Oc(cc2)c1cc2Cl, reference compound] | – | – | – | 231 | 378
Cc1ccn2c(-c3ccc4[nH]ncc4c3)c(-c3ccc(F)cc3)nc2c1 [ALV-UNI-7ff1a6f9-14, Cc1ccn2c(-c3ccc4[nH]ncc4c3)c(-c3ccc(F)cc3)nc2c1] | inactive | – | – | – | –
CCOC(=O)c1cc(-c2ccccc2)sc1NC(=O)Cc1csc(-c2ccccc2)n1 [LON-WEI-4d77710c-24, CCOC(c1c(NC(Cc2csc(-c3ccccc3)n2)=O)sc(-c2ccccc2)c1)=O, reference compound] | – | – | – | 4660 | 3670
O=C1OC(c2cccs2)=N/C1=C\c1ccc(N2CCOCC2)s1 [MAT-POS-fa06b69f-6] | – | – | – | 696 | 701
Cc1ccc(N(Cc2cccc(Cl)c2)C(=O)Cn2nnc3ccccc32)cc1 [CHO-MSK-00c5269a-1, Cc(cc1)ccc1N(Cc1cccc(Cl)c1)C(Cn1nnc2c1cccc2)=O, reference compound] | – | – | – | 2330 | 2820
O=C1N(Cc2cccc(Cl)c2)CCN1c1nccc2[nH]ncc12 [ALP-POS-91609ae9-3, O=C(N(Cc1cccc(Cl)c1)CC1)N1c1nccc2c1cn[nH]2, reference compound] | – | – | – | 4560 | 3730
CC(C)(C)c1ccc(N(C(=O)c2c[nH]cn2)C(C(=O)NCCc2cccc(F)c2)c2cccnc2)cc1 (centres unmarked) [MAT-POS-f2460aef-3, CC(C)(C)c(cc1)ccc1N(C(C(NCCc1cccc(F)c1)=O)c1cnccc1)C(c1c[nH]cn1)=O, reference compound] | – | – | – | 292 | 671
Cc1c(-c2cnccn2)ssc1=S [CHEMBL178459, CC1=C(c2nccnc2)SSC1=S, reference compound] | – | 415 | 415 | – | –
COC(=O)c1c(C)n(S(C)(=O)=O)c2ccc(N(C(=O)c3ccco3)S(C)(=O)=O)cc12 [LON-WEI-4d77710c-11, Cc1c(C(OC)=O)c(cc(cc2)N(C(c3ccco3)=O)S(C)(=O)=O)c2n1S(C)(=O)=O, reference compound] | – | – | – | 935 | 635
CC(CN1CC(=O)NC(=O)C1)N1CC(=O)NC(=O)C1 (centres unmarked) [CHEMBL444186, CC(CN(CC(N1)=O)CC1=O)N(CC(N1)=O)CC1=O, reference compound] | – | 3190 | 3190 | – | –
Nc1ccc(O)c2ncccc12 [CHEMBL449298, Nc(c1cccnc11)ccc1O, reference compound] | – | 2050 | 2050 | – | –
O=C(Nc1cncc2ccccc12)C1CCCc2ccc(Cl)cc21 (centres unmarked) [ALP-POS-477dc5b7-1, O=C(C(CCC1)c2c1ccc(Cl)c2)Nc1cncc2ccccc12, reference compound] | – | – | – | 324 | 307
O=C(Cc1cc(Cl)cc(Oc2cccnc2)c1)Nc1cncc2ccccc12 [MAT-POS-9ff17035-3, O=C(Cc1cc(Cl)cc(Oc2cnccc2)c1)Nc1cncc2ccccc12, reference compound] | – | – | – | 1340 | 1410
CC(C)c1cc(CNc2nc(Nc3cc(C4CC4)[nH]n3)cc(N3CCN(C)CC3)n2)on1 [CHEMBL3545085, CC(C)c1noc(CNc2nc(N3CCN(C)CC3)cc(Nc3n[nH]c(C4CC4)c3)n2)c1, reference compound] | – | 1490 | 1490 | – | –
Cc1cc(C)c(C#N)c(Sc2ncnc3c2nnn3Cc2ccccc2)n1 [LON-WEI-4d77710c-73, Cc(cc(C)nc1Sc2ncnc3c2nnn3Cc2ccccc2)c1C#N, reference compound] | – | – | – | 649 | 452
C[C@@H]1C[C@H](C(=O)Nc2cncc3ccccc23)c2cc(Cl)ccc2O1 [MAT-POS-8a69d52e-2, C[C@H](C[C@@H]1C(Nc2cncc3ccccc23)=O)Oc(cc2)c1cc2Cl, reference compound] | – | – | – | 679 | 1670
COc1nc2ccc(Br)cc2cc1[C@@H](c1ccccc1)[C@@](O)(CCN(C)C)c1cccc2ccccc12 [CHEMBL376488, CN(C)CC[C@]([C@H](c1ccccc1)c(cc(cc(cc1)Br)c1n1)c1OC)(c1cccc2ccccc12)O, reference compound] | – | 4360 | 4360 | – | –
N#Cc1ccc(CN2CCC(C3CCNC3)CC2)cc1 (centres unmarked) [LON-WEI-4d77710c-32, N#Cc1ccc(CN(CC2)CCC2C2CNCC2)cc1, reference compound] | – | – | – | 2060 | 1710
